# Reference: publication PMC13119441, “Linking Chemical Profile to Enzyme Inhibition: A Comprehensive Bio-Guided Study of Lippia origanoides Kunth Essential Oil” (Plants, 2026)
# Structures can show the parent of a compound that is named as a salt.
# Target: T1, butyrylcholinesterase (BChE) (Equus caballus, UniProt P81908)
# T1 construct: purchased Merck Life Science S.r.l; (Milan, Italy); host or cells: equine serum
# Assay: In vitro BChE inhibition test (spectrophotometric, Ellman)
# Assay type: biochemical, equine
# Conditions: 1.0 µg/mL in reaction mixture, read-out: % Enzyme Inhibition (n = 3)
# Method: The assays were optimized for essential oil matrices, particularly by adjusting solvent conditions (DMSO content), substrate/enzyme ratios, and assay timing to ensure measurements within the linear kinetic range. The percentage inhibition of AChE, BChE, α-glucosidase, lipase and tyrosinase was measured according to the equation below: % Inhibition=∆AControl−∆A(Sample)/∆AControl×100 where: ∆A (Control) = A Control − A Control Blank∆A(Sample) = A Sample − A Sample Blank
# The buffers used in the experiment were: buffer A (50 mM Tris-HCl, pH 8), buffer B (50 mM Tris-HCl, pH 8, supplemented with 0.1% bovine albumin and 0.1% TWEEN20) and buffer C (50 mM Tris-HCl, pH 8, containing 0.1 M NaCl and 0.02 M MgCl2•6H2O). The solutions for both enzymes (0.22 U/mL) were prepared using buffer B. Acetylthiocholine iodide (ATCI) at 1.5 mM was dissolved in Millipore water, while butyrylthiocholine iodide (BTCI) was dissolved in buffer A. Ellman’s reagent solution (3 mM) was prepared in buffer C.
# The final concentration of DMSO in the reaction mixture was 0.3%. The mixture was incubated at 30 °C for 6 min, after which absorbance was measured at 405 nm.
# T1 sequence (P81908 whole entry): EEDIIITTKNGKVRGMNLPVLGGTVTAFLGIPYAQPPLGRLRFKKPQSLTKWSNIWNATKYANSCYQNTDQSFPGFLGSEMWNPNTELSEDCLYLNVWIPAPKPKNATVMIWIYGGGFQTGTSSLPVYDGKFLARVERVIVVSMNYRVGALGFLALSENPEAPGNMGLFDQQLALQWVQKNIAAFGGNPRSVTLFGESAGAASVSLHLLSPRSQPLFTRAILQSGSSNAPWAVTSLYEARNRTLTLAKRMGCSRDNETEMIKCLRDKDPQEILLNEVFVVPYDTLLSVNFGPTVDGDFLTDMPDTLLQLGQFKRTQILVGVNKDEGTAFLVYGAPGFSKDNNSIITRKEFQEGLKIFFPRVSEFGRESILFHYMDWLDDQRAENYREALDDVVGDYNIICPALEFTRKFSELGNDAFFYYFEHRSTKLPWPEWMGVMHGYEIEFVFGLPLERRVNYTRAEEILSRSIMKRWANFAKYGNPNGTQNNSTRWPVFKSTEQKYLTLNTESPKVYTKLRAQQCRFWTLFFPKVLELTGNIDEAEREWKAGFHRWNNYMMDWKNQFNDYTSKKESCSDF
smiles,measurement,value
"COc1ccc2c3c1O[C@H]1C[C@@H](O)C=C[C@@]31CCN(C)C2 [Galanthamine, galanthamine hydrobromide]",inhibition at 1 µg/mL,24.7%
